In patent US7179800B2 (priority 2002, dated 2007):
Several values for one entry are separate records, joined by “and”; a condition that tells them apart may be missing. Identical values can stand only once.

Legend:
Male ICR mice [1] = experiment: Tail-flick antinociception (TF, % MPE) in mice; assay type: in vivo, mouse; settings: for T.F. % effect at dose: Table 6, @ 30 (mg/kg)
Method: (§1) Male ICR mice (25–32 g), obtained from Harlan (Dublin, Va.), were housed in groups of five. All animals were kept in a temperature-controlled (20–22° C.) environment with a 12-hour light-dark cycle (lights on at 7 a.m.). Separate mice were used for testing each drug dose in the in vivo behavioral procedures. Brain tissue for binding studies was obtained from male Sprague-Dawley rats (150–200 g) purchased from Harlan Laboratories (Dublin, Va.).
(§2) Measurement of spontaneous activity in mice occurred in standard activity chambers interfaced with a Digiscan Animal Activity Monitor (Omnitech Electronics, Inc., Columbus, Ohio). A standard tail-flick apparatus and a digital thermometer (Fisher Scientific, Pittsburgh, Pa.) were used to measure antinociception and rectal temperature, respectively
(§3) Resorcinols were synthesized in our labs (Organix, Inc., Woburn, Mass.) according to the procedure specified below and were suspended in a vehicle of absolute ethanol, Emulphor-620 (Rhone-Poulenc, Inc., Princeton, N.J.), and saline in a ratio of 1:1:18. Drugs were administered to the mice intravenously (i.v.) in the tail vein at a volume of 0.1 ml/10 g.
(§4) Prior to testing in the behavioral procedures, mice were acclimated to the experimental setting (ambient temperature 22–24° C.) overnight. Pre-injection control values were determined for rectal temperature and tail-flick latency (in sec). […] Tail-flick latency was measured at 20 min post-injection. Maximum latency of 10 sec was used. Antinociception was calculated as percent of maximum possible effect {% MPE=[(test−control latency)/(10-control)]×100}. Control latencies typically ranged from 1.5 to 4.0 sec. At 30 min post-injection, rectal temperature was measured This value was expressed as the difference between control temperature (before injection) and temperatures following drug administration (° C.). Different mice (n=5–6 per dose) were tested for each dose of each compound. Each mouse was tested in each of the 3 procedures.
(§5) Based on data obtained from numerous previous studies with cannabinoids, maximal cannabinoid effects in each procedure were estimated as follows: 90% inhibition of spontaneous activity, 100% MPE in the tail flick procedure, and −6° C. change in rectal temperature. ED50's were defined as the dose at which half maximal effect occurred. For drugs that produced one or more cannabinoid effect, ED50's were calculated separately using least-squares linear regression on the linear part of the dose-effect curve for each measure in the mouse tetrad, plotted against log10 transformation of the dose. For the purposes of potency comparison, potencies were expressed as μmol/kg.

Male ICR mice [2] = experiment: Suppression of spontaneous activity (SA) in mice; assay type: in vivo, mouse
Method: as §1, §2, §3, §4, §5

Male ICR mice [3] = experiment: Change in rectal temperature (RT) in mice; assay type: in vivo, mouse; settings: for R.T. effect at dose: Table 6, @ 30 (mg/kg)
Method: as §1, §2, §3, §4, §5

CB2 receptor = molecular target: T1, CB2 receptor (Homo sapiens, UniProt P34972); experiment: CB2 binding procedure: displacement of [3H]CP-55,940 from membranes of transfected CHO cells; settings: for CB1/CB2 (ratio of Ki): CB1 Ki divided by CB2 Ki; for Ki: means ± SEM, [3H]CP-55,940, transfected CHO cell membranes, read-out: Ki (nM) CB2
T1 construct: expressed in transfected cells; host or cells: CHO cells, G418-selected transfected line
T1 sequence (P34972 whole entry): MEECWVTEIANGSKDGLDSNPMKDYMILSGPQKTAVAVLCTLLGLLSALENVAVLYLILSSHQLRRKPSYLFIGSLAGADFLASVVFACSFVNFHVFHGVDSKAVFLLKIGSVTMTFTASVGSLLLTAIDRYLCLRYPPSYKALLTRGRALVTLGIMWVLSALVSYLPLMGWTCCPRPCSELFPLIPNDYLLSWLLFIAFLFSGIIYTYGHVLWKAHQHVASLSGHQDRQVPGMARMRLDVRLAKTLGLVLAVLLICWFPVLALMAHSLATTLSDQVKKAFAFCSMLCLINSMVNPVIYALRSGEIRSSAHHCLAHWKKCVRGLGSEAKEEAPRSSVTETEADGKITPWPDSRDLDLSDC
Method: Membranes for CB2 binding were obtained from CHO cells. The transfected cell line was maintained in Dublecco's Modified Eagle Medium (Gibco BRL, Grand Island, N.Y.) with 10% fetal clone II (HyClone Laboratories, Inc., Logan, Utah) plus 0.3 to 0.5 mg/ml G418 (to maintain selective pressure) under 5% CO2 at 37% C. Cells were harvested with 1 mM EDTA in phosphate-buffered saline and were centrifuged at 1000×g for 5 min at 4% C. The supernatant was saved and the P1 pellet was resuspended in centrifugation buffer. Homogenization and centrifugation were repeated twice and the combined supernatant fractions were centrifuged at 40,000×g for 30 min at 4% C. The P2 pellet was resuspended in centrifugation buffer 2 (Tris HCl, 50 mM; EDTA, 1 mM; and MgCl2, 3 mM, pH 7.4) to a protein concentration of approximately 2 mg/ml. Protein concentrations were determined by the method of Bradford (1976) using Bio-Rad Protein Assay (Bio-Rad, Richmond, Calif.) and BSA standards (fatty acid free, Sigma Chemical Co., St. Louis, Mo.). The membrane preparation was divided into amounts convenient for binding assays and frozen rapidly in dry ice and stored at −80% C.
Binding was initiated by the addition of 50 μg of quickly thawed P2 membranes to test tubes containing [^3H]CP-55,940 (final reaction concentration 0.5 nM), an appropriate concentration of unlabeled CP-55,940 or test drug, and sufficient quantity of assay buffer (50 mM Tris-HCl, 1 mM EDTA, 3 mM MgCl2, 5 mg/ml bovine serum albumin, pH 7.4) to bring the total incubation volume to 0.5 ml. Concentration of [^3H]CP-55,940 in saturation studies ranged from 50 to 10,000 pM. Nonspecific binding was determined by the addition of 1 μM unlabeled CP-55,940. CP-55,940 and all cannabinoid analogs were prepared by suspension in assay buffer from a 1 mg/ml ethanolic stock without evaporation of the ethanol (final concentration of no more than 0.4%). In competition studies, analog concentrations ranged from 0.1 nM to 10 μM. After incubation at 30% C for 1 hr, binding was terminated by the addition of 2 ml of ice-cold wash buffer (50 mM Tris-HCl and 1 mg/ml BSA) and vacuum filtration through pre-treated filters in a 12-well sampling manifold (Millipore, Bedford, Mass.). Reaction vessels were washed once with 2 ml of ice-cold wash buffer. Filters were placed into 7-ml plastic scintillation vials (RPI Corp., Mount Prospect, Ill.) with 4 ml of Budget-Solve (RPI Corp.). After shaking for 30 min, the radioactivity present was determined by liquid scintillation spectrometry. Three reaction vessels were used for each drug concentration in each assay. The results represent the combined data of three independent experiments. All assays were performed in siliconized test tubes, which were prepared by air drying (12 hr) inverted borosilicate tubes after two rinses with a 0.1% solution of AquaSil (Pierce, Rockford, Ill.). The GF/C glass-fiber filters (2.4 cm, Baxter, McGaw Park, Ill.) were pre-treated in a 0.1% solution of pH 7.4 polyethylenimine (Sigma Chemical Co.) for at least 6 hr.
(§6) In addition, multiple linear regression was used to calculate the overall degree of relationship between CB1 binding affinity and potency in the mouse measures for all active cannabinoids. […] Ki values for CB1 and CB2 binding were obtained from Scatchard displacement analysis as determined via EBDA program of the KELL software package (Biosoft, Milltown, N.J.).

CB1 receptor = CB1 receptor (Rattus norvegicus, UniProt P20272); experiment: CB1 binding procedure: displacement of [3H]CP 55,940 from rat whole-brain P2 membranes; parameters: whole brain was homogenized and centrifuged; from tissue; host or cells: rat whole brain, P2 membrane fraction; settings: for Ki: means ± SEM, [3H]CP 55,940, rat brain membranes, read-out: Ki (nM) CB1
Sequence of CB1 receptor (P20272 whole entry): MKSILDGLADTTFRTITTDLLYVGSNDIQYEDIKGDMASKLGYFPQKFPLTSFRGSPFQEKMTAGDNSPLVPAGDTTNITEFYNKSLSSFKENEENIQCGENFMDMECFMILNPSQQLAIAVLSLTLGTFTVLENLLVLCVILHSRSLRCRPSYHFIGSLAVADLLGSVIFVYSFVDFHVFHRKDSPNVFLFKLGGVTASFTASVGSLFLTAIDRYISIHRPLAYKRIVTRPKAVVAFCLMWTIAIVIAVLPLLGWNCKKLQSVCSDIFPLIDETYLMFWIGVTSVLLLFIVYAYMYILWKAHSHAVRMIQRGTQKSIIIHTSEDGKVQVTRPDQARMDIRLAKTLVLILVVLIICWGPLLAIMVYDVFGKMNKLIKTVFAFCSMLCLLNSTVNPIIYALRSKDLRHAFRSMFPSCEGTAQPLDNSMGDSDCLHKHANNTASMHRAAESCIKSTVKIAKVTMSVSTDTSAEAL
Method: as §1
The methods used for tissue preparation and binding have been described previously (Compton et al., 1993) and are similar to those described by Devane et al. (1988). All assays, as described briefly below, were performed in triplicate, and the results represent the combined data from three to six individual experiments.
Following decapitation and rapid removal of the brain, whole brain was homogenized and centrifuged. The resulting pellet was termed P1. The supernatant was saved and combined with the two subsequent supernatants obtained from washing of the P1 pellet. The combined supernatant fractions were centrifuged, resulting in the P2 pellet. After further incubation and centrifuging, this pellet was resuspended in assay buffer to a protein concentration of approximately 2 mg/ml. The membrane preparation was quickly frozen in a bath solution of dry ice and 2-methylbutane (Sigma Chemical Co., St. Louis, Mo.), then stored at −80° C. for no more than 2 weeks. Prior to performing a binding assay an aliquot of frozen membrane was rapidly thawed and protein values determined by the method of Bradford (1976).
Binding was initiated by the addition of 150 μg of P2 membrane to test tubes containing 1 nM of [^3H] CP 55,940 (79 Ci/mmol) and a sufficient quantity of buffer to bring the total incubation volume to 1 ml. Nonspecific binding was determined by the addition of 1 μM unlabeled CP 55,940. Following incubation at 30° C. for 1 hr, binding was terminated by addition of ice cold buffer and vacuum filtration through pretreated filters in a 12-well sampling manifold (Millipore, Bedford, Mass.). After washing, filters were placed into plastic scintillation vials (Packard, Downer Grove, Ill.) and shaken. The quantity of radioactivity present was determined by liquid scintillation spectrometry.
as §6

[4] = relative to the comparator analog

Compound	CB1/CB2 (ratio of Ki) (CB2 receptor)	Ki (CB2 receptor)	Ki (CB1 receptor) [nM]	further results
C=C(C)[C@@H]1CCC(C)=C[C@H]1c1c(C)cc(O)cc1O (single isomer, unassigned) [O-1602]				T.F. % effect at dose (Male ICR mice [1]): 0 @ 30%; S.A % effect at dose, stim. (Male ICR mice [2]; Table 6, stimulation, @ 30 (mg/kg)): 66% stim.; R.T. effect at dose (Male ICR mice [3]): 0.3 @ 30 °C
CCCCCCC(C)(C)c1cc(OC)c(C2(O)CCCC(C)(C)C2)c(OC)c1 (centres unmarked) [O-2068]	47	161 ± 24 nM	7510 ± 721	
CCCCCCC(C)(C)c1cc(OCC)c(C2(O)CCCC(C)C2)c(OCC)c1 (centres unmarked) [O-2090]	10	858 ± 43 nM	8810 ± 422	
CCCCCCC(C)(C)c1cc(OC)c(C2(O)CCC(=O)CC2)c(OC)c1 [O-2115]	13	346 ± 49 nM	4570 ± 173	
CCCCCCC(C)(C)c1cc(OC)c(C2CCOCC2)c(OC)c1 [O-1964, 4-(4-(1,1-Dimethylheptyl)-2,6-dimethoxy-phenyl)-tetrahydro-pyran]		911 ± 116 nM	> 10000	fold decrease in CB2 affinity (CB2 receptor; [4]): ~2 fold; T.F. % effect at dose (Male ICR mice [1]): 30% @ 30
CCCCCCC(C)(C)c1cc(OC)c(C2(O)CC(C)CC(O)C2)c(OC)c1 (centres unmarked) [O-2121]	20	101 ± 14 nM	1990 ± 77	
CCCCCCC(C)(C)c1cc(OC)c(C2(O)CCC(O)CC2)c(OC)c1 (single isomer, unassigned) [O-2116A]	21	190 ± 17 nM	3930 ± 483	
CCCCCCC(C)(C)c1cc(OC)c(C2(O)CCCCCC2)c(OC)c1 [O-2091, 1-(4-(1,1-Dimethylheptyl)-2,6-dimephenyl)-cycloheptan-1-ol]	50	64 ± 8 nM	3200 ± 141	fold increase in CB2 affinity (CB2 receptor; [4]): ~2 fold
CCCCCCC(C)(C)c1cc(OC)c(C2(O)CCCC(C)C2)c(OC)c1 (single isomer, unassigned; isomer 1) [O-1966A, 1-(4-(1,1-Dimethylheptyl-2,6-dimethoxy-phenyl)-3-methyl-cyclohexanol isomer 1]	220	22.5 nM and 23 nM	5060 ± 984	CB2 selectivity (CB2 receptor): 225 fold; T.F. % effect at dose (Male ICR mice [1]): 5.1 @ 30%; R.T. effect at dose (Male ICR mice [3]): 0.5 @ 30 °C
CCCCCCC(C)(C)c1cc(OC)c(C2=CCC(=O)CC2)c(OC)c1 [O-2114, 4-(4-(1,1-O-methyl-heptyl)-2,6-dimethoxy-phenyl)-cyclohex-3-enone]	5	1770 ± 184 nM	8440 ± 954	
CCCCCCC(C)(C)c1cc(OC)c(C2(O)CCC3(CC2)OCCO3)c(OC)c1 [O-2092, 8-(4-(1,1-Dimethylheptyl)-2,6-dimphenyl)-1,4-dioxaspiro(4,5)decan-]	36	126 ± 12 nM	4580 ± 312	
COc1cc(C)cc(OC)c1C1(O)CCCC(C)(C)C1 (centres unmarked) [O-2139, 1-(2,6-Dimethyoxy-methyl-phenyl)-3,3-dimethyl-cyclo-hexanol]		> 10000 nM	> 10000	
CCCCCCc1ccc(O)c(C2CCCCC2)c1O [O-2010, 2-Cyclohexyl-4-hexyl resorcinol]			9510 ± 332	T.F. % effect at dose (Male ICR mice [1]): 9.0% @ 30; TF percent effect (% MPE) at the highest dose (Male ICR mice [1]; mice, i.v., 30 mg/kg): 9%(30); fold decrease in CB1 affinity (CB1 receptor; [4]): 865 fold; SA percent effect at the highest dose (Male ICR mice [2]; mice, i.v., 30 mg/kg, % inhibition of activity of vehicle group): −18%(30); RT effect at the highest dose (change in rectal temperature) (Male ICR mice [3]; mice, i.v., 30 mg/kg): −0.4(30) °C
CCCCCCC(C)(C)c1cc(OC)c(C2(O)CCCCC2)c(OC)c1 [O-2072]	55	105 ± 19 nM	5820 ± 662	
CCCCCCC(C)(C)c1cc(OC)c(C2=CCOCC2)c(OC)c1 [O-1965, 4-(4-(1,1-Dimethylheptyl)-2,6-dimethoxy-phenyl)-3,6-dihydro-2H-pyran]		> 10000 nM	> 10000	
CCCCCCC(C)(C)c1cc(OC)c(C2(O)CCC(O)CC2)c(OC)c1 (single isomer, unassigned) [O-2117B]		1560 ± 70 nM	> 10000	
